Laboratory results from patent publication US20100323031A1, “Synergistic combination to enhance blood glucose and insulin metabolism” (GLYKON TECHNOLOGIES GROUP, LLC, priority 2009, published 2010).
Marks after values point to notes of the source that are not given here.

Tests used:
[1] = system: streptozotocin (STZ)-induced diabetes; experiment: Pilot animal streptozotocin-induced diabetes trial, blood glucose by glucometer; type: in vivo, male Wistar albino rats; details: STD Herbal 250 mg/kg
Description: The synergism of the formula is reflected in findings in an animal trial of induced diabetes treated with Metformin. To produce streptozotocin (STZ)-induced diabetes in experimental rats, male Wistar albino rats of 12 weeks age were allowed to fast 24 hrs prior to injection with freshly prepared STZ in citrate buffer […] (45 mg/kg, i.p). […] However, an additional arm of similarly-induced diabetic rats that were older and much sicker was added to test the herbal mixture prepared to produce the relative percentages of each ingredient as in Example 1 given above, here termed “STD Herbal.” After an overnight fast, the samples suspended in 5% gum acacia were fed by gastric intubations with a syringe. […] The blood glucose level was determined by using an electronic glucometer (Accu Check, Roche Diagnostic) and the results are tabulated in table 4. n=6 animals in each group. Parenthesis value indicate percentage reduction of blood sugar level; *P<0.01 compared with initial level of blood glucose (0 h) in the respective group. Data were analyzed by repeated measure ANOVA followed by Dunnett test.

Human - sedentary = details: 3 grams HCA as the free acid equivalent; cited from earlier work
Male Wistar rats = details: equivalent to 2,170 mg HCA free acid; cited from earlier work
[2] = system: Human morbidly obese diabetics; details: published literature, U.S. Pat. No. 6,207,714; cited from earlier work
[3] = system: Aged diabetic obese Zucker rat; details: human-equivalent dose, 6:1 rat to human multiplier; cited from earlier work

CN(C)C(=N)N=C(N)N [Metformin]
Blood glucose level, Initial (0 hr) ([1]; 0 hr, before treatment, overnight fast, Metformin 150 mg/kg by gastric intubation, n=6, in mg/dL (unit assumed)): 329.2 ± 5.25 | percentage reduction of blood sugar level, +1 hr ([1]; +1 hr vs initial (0 hr), Metformin 150 mg/kg): (17.49) % | Blood glucose level, Treatment +1 hr ([1]; +1 hr, Metformin 150 mg/kg by gastric intubation, n=6, in mg/dL (unit assumed)): 271.6 ± 4.0 | percentage reduction of blood sugar level, +2 hr ([1]; +2 hr vs initial (0 hr), Metformin 150 mg/kg): (34.87) % | Blood glucose level, Treatment +2 hr ([1]; +2 hr, Metformin 150 mg/kg by gastric intubation, n=6, in mg/dL (unit assumed)): 214.4 ± 3.17* | percentage reduction of blood sugar level, +3 hr ([1]; +3 hr vs initial (0 hr), Metformin 150 mg/kg): (46.38) % | Blood glucose level, Treatment +3 hr ([1]; +3 hr, Metformin 150 mg/kg by gastric intubation, n=6, in mg/dL (unit assumed)): 176 ± 6.7* | percentage reduction of blood sugar level, +4 hr ([1]; +4 hr vs initial (0 hr), Metformin 150 mg/kg): (53.52) % | Blood glucose level, Treatment +4 hr ([1]; +4 hr, Metformin 150 mg/kg by gastric intubation, n=6, in mg/dL (unit assumed)): 153 ± 3.31*

O=C([O-])C[C@@](O)(C(=O)[O-])[C@H](O)C(=O)[O-].O=C([O-])C[C@@](O)(C(=O)[O-])[C@H](O)C(=O)[O-].[Ca+2].[Ca+2].[Ca+2] [calcium salt, calcium salt of (−)-hydroxycitric acid]
efficacy in reducing blood glucose (Human - sedentary): ineffective

potassium salt of (−)-hydroxycitric acid
efficacy in reducing blood glucose at smaller dosage (Male Wistar rats): ineffective | lowest dose of HCA as free acid equivalent found efficacious in reducing blood glucose [2]: 3 grams

potassium-calcium salt of (−)-hydroxycitric acid
lowest stand-alone dose shown to be effective, as HCA free acid equivalent [3]: 3,276 mg
